Test results from the kinase profiling compilation of Christmann-Franck et al. (2016).

Tests used:
BLK (human) = BLK (human) (UniProt P51451); experiment: KINOMEscan competition binding; details: compound 10.0 µM
BRAF (human) = BRAF (human) (UniProt P15056); experiment: KINOMEscan competition binding; details: compound 10.0 µM
BRSK2 (human) = BRSK2 (human) (UniProt Q8IWQ3); experiment: KINOMEscan competition binding; details: compound 10.0 µM
CDK13 (human) = CDK13 (human) (UniProt Q14004); experiment: KINOMEscan competition binding; details: compound 10.0 µM
CDK14 (human) = CDK14 (human) (UniProt O94921); experiment: KINOMEscan competition binding; details: compound 10.0 µM
CDK19 (human) = CDK19 (human) (UniProt Q9BWU1); experiment: KINOMEscan competition binding; details: compound 10.0 µM
CDK2 (human) = CDK2 (human) (UniProt P24941); experiment: KINOMEscan competition binding; details: compound 10.0 µM
CDK8 (human) = CDK8 (human) (UniProt P49336); experiment: KINOMEscan competition binding; details: compound 10.0 µM
CLK3 (human) = CLK3 (human) (UniProt P49761); experiment: KINOMEscan competition binding; details: compound 10.0 µM
CPK1 (P.falciparum) = experiment: KINOMEscan competition binding; details: compound 10.0 µM
CSNK1A1 (human) = CSNK1A1 (human) (UniProt P48729); experiment: KINOMEscan competition binding; details: compound 10.0 µM
CaMK1 (human) = CaMK1 (human) (UniProt Q14012); experiment: KINOMEscan competition binding; details: compound 10.0 µM
[1] = tested on: EGFR (human), P00533 [747-751 del / S ins]; experiment: KINOMEscan competition binding; details: compound 10.0 µM
[2] = tested on: EGFR (human), P00533 [A750P; 747-749 del]; experiment: KINOMEscan competition binding; details: compound 10.0 µM
EPHA3 (human) = EPHA3 (human) (UniProt P29320); experiment: KINOMEscan competition binding; details: compound 10.0 µM
FGFR3 (human) = FGFR3 (human) (UniProt P22607); experiment: KINOMEscan competition binding; details: compound 10.0 µM
[3] = tested on: FLT3 (human), P36888 [R834Q]; experiment: KINOMEscan competition binding; details: compound 10.0 µM
GAK (human) = GAK (human) (UniProt O14976); experiment: KINOMEscan competition binding; details: compound 10.0 µM
GRK1 (human) = GRK1 (human) (UniProt Q15835); experiment: KINOMEscan competition binding; details: compound 10.0 µM
GSK3A (human) = GSK3A (human) (UniProt P49840); experiment: KINOMEscan competition binding; details: compound 10.0 µM
GSK3B (human) = GSK3B (human) (UniProt P49841); experiment: KINOMEscan competition binding; details: compound 10.0 µM
HCK (human) = HCK (human) (UniProt P08631); experiment: KINOMEscan competition binding; details: compound 10.0 µM
HIPK2 (human) = HIPK2 (human) (UniProt Q9H2X6); experiment: KINOMEscan competition binding; details: compound 10.0 µM
ICK (human) = ICK (human) (UniProt Q9UPZ9); experiment: KINOMEscan competition binding; details: compound 10.0 µM
[4] = tested on: KIT (human), P10721 [V559D]; experiment: KINOMEscan competition binding; details: compound 10.0 µM
LRRK2 (human) = LRRK2 (human) (UniProt Q5S007); experiment: KINOMEscan competition binding; details: compound 10.0 µM
MAK (human) = MAK (human) (UniProt P20794); experiment: KINOMEscan competition binding; details: compound 10.0 µM
MAP2K4 (human) = MAP2K4 (human) (UniProt P45985); experiment: KINOMEscan competition binding; details: compound 10.0 µM
MELK (human) = MELK (human) (UniProt Q14680); experiment: KINOMEscan competition binding; details: compound 10.0 µM
[5] = tested on: MET (human), P08581 [Y1235D]; experiment: KINOMEscan competition binding; details: compound 10.0 µM
NEK3 (human) = NEK3 (human) (UniProt P51956); experiment: KINOMEscan competition binding; details: compound 10.0 µM
NUAK2 (human) = NUAK2 (human) (UniProt Q9H093); experiment: KINOMEscan competition binding; details: compound 10.0 µM
PDGFRA (human) = PDGFRA (human) (UniProt P16234); experiment: KINOMEscan competition binding; details: compound 10.0 µM
PRKG2 (human) = PRKG2 (human) (UniProt Q13237); experiment: KINOMEscan competition binding; details: compound 10.0 µM
RPS6KA1 KD2 (human) = RPS6KA1 KD2 (human) (UniProt Q15418); experiment: KINOMEscan competition binding; details: compound 10.0 µM
STK35 (human) = STK35 (human) (UniProt Q8TDR2); experiment: KINOMEscan competition binding; details: compound 10.0 µM
TGFBR1 (human) = TGFBR1 (human) (UniProt P36897); experiment: KINOMEscan competition binding; details: compound 10.0 µM
TXK (human) = TXK (human) (UniProt P42681); experiment: KINOMEscan competition binding; details: compound 10.0 µM
[6] = target: TYK2 JH2 pseudokinase (human) (UniProt P29597); experiment: KINOMEscan competition binding; details: compound 10.0 µM
MTOR (human) = MTOR (human) (UniProt P42345); experiment: SelectScreen, TR FRET
PI4KB (human) = PI4KB (human) (UniProt Q9UBF8); experiment: SelectScreen, TR FRET
PIK3C2A (human) = PIK3C2A (human) (UniProt O00443); experiment: SelectScreen, TR FRET
Chain of PIK3C2A (human) (O00443 whole entry, looked up): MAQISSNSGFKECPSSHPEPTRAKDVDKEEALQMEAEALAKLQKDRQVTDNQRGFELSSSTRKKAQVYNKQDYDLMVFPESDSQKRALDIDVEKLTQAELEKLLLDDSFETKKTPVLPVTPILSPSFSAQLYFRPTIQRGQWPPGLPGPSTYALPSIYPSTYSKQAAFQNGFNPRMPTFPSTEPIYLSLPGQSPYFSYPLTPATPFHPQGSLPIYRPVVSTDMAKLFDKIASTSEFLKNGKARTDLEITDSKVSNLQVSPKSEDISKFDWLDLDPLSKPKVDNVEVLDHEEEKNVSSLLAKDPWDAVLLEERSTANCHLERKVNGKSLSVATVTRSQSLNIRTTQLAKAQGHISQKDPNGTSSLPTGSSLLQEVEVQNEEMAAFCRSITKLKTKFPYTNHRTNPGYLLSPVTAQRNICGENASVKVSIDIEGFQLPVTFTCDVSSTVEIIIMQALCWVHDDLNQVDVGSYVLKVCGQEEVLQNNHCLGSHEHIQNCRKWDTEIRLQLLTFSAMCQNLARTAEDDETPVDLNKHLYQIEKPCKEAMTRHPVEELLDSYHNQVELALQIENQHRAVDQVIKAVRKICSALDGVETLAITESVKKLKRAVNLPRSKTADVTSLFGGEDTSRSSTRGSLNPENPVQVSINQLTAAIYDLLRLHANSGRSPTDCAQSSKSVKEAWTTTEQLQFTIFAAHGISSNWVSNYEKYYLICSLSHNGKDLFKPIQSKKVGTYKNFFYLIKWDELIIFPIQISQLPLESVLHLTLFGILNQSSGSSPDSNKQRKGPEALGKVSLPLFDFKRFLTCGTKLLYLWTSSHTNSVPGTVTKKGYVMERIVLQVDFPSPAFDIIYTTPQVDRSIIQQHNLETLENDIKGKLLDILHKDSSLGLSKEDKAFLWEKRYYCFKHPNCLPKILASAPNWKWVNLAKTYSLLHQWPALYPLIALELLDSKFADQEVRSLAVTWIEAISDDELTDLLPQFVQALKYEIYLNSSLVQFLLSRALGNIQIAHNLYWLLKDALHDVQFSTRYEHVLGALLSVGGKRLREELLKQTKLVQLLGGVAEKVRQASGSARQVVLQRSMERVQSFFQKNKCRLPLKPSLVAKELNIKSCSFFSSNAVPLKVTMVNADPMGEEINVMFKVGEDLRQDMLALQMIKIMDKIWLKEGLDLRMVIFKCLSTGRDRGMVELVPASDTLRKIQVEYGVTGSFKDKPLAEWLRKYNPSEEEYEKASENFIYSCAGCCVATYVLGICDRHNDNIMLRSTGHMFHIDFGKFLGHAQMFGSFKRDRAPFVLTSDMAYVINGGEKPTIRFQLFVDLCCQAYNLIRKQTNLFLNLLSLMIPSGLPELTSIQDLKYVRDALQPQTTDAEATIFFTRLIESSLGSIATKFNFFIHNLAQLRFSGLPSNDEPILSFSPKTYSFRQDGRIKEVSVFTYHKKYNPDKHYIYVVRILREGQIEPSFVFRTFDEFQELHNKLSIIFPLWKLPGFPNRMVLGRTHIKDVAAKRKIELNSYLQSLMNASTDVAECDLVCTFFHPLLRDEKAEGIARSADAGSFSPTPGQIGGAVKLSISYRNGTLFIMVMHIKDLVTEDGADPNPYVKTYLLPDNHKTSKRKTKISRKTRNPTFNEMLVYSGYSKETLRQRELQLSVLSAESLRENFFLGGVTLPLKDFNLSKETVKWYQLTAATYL

Chain of BRAF (human) (P15056 whole entry, looked up): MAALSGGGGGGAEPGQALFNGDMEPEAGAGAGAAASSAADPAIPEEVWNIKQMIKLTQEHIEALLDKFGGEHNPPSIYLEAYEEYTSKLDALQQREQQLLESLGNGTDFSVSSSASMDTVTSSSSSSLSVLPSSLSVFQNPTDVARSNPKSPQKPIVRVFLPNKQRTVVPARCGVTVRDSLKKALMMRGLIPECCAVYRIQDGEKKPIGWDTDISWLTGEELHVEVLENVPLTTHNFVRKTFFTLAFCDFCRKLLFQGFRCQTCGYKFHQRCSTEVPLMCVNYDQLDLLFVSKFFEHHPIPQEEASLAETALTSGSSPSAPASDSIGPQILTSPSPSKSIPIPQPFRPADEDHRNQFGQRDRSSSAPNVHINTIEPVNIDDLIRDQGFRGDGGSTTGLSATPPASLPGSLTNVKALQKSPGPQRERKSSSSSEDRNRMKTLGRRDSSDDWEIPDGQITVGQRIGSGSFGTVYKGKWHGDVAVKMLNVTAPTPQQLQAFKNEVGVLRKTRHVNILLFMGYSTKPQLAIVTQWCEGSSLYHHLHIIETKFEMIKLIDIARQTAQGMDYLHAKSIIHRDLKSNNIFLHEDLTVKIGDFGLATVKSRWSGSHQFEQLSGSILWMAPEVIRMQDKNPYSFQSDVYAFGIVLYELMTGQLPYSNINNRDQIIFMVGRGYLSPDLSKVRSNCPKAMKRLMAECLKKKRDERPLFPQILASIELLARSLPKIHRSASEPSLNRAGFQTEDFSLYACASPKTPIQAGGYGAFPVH
Chain of ICK (human) (Q9UPZ9 whole entry, looked up): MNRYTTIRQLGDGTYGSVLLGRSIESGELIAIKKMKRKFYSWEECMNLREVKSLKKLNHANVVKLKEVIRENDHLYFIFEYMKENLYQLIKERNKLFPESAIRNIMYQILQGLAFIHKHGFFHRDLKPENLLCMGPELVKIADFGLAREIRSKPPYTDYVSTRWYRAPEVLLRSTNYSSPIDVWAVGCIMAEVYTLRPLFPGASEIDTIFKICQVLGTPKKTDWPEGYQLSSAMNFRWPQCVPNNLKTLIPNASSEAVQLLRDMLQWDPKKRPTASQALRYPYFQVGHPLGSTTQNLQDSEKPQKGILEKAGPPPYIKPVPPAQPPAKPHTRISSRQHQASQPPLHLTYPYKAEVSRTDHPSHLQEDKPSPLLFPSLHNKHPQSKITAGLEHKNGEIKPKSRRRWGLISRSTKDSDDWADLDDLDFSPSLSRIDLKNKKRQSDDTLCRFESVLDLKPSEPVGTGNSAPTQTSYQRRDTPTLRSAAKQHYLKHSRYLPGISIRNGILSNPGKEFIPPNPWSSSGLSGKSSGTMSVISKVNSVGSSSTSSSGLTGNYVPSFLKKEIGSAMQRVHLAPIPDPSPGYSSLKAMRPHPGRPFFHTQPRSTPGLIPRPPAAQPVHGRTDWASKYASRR
Chain of CaMK1 (human) (Q14012 whole entry, looked up): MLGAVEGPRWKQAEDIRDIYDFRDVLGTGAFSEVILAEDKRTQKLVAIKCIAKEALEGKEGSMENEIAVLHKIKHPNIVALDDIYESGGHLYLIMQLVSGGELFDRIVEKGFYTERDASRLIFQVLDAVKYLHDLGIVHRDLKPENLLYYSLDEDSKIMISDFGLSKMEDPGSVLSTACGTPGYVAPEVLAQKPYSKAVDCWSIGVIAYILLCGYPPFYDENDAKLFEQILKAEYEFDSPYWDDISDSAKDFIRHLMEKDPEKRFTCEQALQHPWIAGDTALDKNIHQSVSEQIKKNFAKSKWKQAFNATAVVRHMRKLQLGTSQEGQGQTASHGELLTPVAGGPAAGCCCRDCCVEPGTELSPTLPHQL
Chain of CLK3 (human) (P49761 whole entry, looked up): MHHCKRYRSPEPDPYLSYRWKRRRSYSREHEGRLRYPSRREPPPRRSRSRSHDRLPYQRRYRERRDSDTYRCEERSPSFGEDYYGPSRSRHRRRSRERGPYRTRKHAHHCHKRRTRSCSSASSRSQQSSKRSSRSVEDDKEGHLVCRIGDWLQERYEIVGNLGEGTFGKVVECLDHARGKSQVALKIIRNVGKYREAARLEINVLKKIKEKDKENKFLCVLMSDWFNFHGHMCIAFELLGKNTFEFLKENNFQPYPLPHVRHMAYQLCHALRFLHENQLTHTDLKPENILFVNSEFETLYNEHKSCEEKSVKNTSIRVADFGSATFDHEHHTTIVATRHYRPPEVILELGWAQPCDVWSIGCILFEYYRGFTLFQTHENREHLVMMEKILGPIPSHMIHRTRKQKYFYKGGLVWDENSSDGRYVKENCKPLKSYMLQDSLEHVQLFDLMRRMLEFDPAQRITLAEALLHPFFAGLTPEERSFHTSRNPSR
Chain of HCK (human) (P08631 whole entry, looked up): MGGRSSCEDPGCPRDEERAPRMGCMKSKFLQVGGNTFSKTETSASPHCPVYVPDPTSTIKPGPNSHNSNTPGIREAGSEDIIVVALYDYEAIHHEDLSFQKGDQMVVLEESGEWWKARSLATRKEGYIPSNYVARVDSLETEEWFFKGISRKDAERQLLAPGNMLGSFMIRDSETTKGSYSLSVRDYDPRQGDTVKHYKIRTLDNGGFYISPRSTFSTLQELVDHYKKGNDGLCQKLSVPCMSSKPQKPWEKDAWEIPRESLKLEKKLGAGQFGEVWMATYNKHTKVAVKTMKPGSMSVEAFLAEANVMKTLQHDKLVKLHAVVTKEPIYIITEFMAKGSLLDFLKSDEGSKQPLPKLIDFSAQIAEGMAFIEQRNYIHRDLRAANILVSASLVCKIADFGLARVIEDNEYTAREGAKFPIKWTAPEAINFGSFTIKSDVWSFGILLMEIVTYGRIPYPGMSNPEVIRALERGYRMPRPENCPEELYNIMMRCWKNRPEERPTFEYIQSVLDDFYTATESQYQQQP
Chain of GSK3B (human) (P49841 whole entry, looked up): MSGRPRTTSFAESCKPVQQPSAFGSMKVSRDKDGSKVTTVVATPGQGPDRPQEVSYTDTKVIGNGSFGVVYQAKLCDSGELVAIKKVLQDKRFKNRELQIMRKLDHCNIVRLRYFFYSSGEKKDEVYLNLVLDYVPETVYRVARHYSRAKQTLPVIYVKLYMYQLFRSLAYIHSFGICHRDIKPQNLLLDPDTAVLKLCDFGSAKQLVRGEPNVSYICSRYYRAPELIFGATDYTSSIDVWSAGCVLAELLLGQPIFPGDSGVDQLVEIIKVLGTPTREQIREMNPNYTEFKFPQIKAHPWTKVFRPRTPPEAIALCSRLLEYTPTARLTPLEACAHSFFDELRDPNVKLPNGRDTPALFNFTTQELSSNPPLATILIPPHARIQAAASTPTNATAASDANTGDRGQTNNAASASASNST

Cc1cc([C@@H](C)Nc2ccccc2C(=O)O)c2nc(N3CCOCC3)cc(=O)n2c1
kinase still bound, per cent of control (BLK (human)): 100% | kinase still bound, per cent of control (BRAF (human)): 74% | kinase still bound, per cent of control (BRSK2 (human)): 94% | kinase still bound, per cent of control (CDK13 (human)): 100% | kinase still bound, per cent of control (CDK14 (human)): 100% | kinase still bound, per cent of control (CDK19 (human)): 100% | kinase still bound, per cent of control (CDK2 (human)): 64% | kinase still bound, per cent of control (CDK8 (human)): 100% | kinase still bound, per cent of control (CLK3 (human)): 95% | kinase still bound, per cent of control (CPK1 (P.falciparum)): 75% | kinase still bound, per cent of control (CSNK1A1 (human)): 100% | kinase still bound, per cent of control (CaMK1 (human)): 94% | kinase still bound, per cent of control [1]: 68% | kinase still bound, per cent of control [2]: 100% | kinase still bound, per cent of control (EPHA3 (human)): 85% | kinase still bound, per cent of control (FGFR3 (human)): 100% | kinase still bound, per cent of control [3]: 100% | kinase still bound, per cent of control (GAK (human)): 83% | kinase still bound, per cent of control (GRK1 (human)): 81% | kinase still bound, per cent of control (GSK3A (human)): 100% | kinase still bound, per cent of control (GSK3B (human)): 100% | kinase still bound, per cent of control (HCK (human)): 60% | kinase still bound, per cent of control (HIPK2 (human)): 77% | kinase still bound, per cent of control (ICK (human)): 100% | kinase still bound, per cent of control [4]: 93% | kinase still bound, per cent of control (LRRK2 (human)): 97% | kinase still bound, per cent of control (MAK (human)): 100% | kinase still bound, per cent of control (MAP2K4 (human)): 70% | kinase still bound, per cent of control (MELK (human)): 100% | kinase still bound, per cent of control [5]: 93% | kinase still bound, per cent of control (NEK3 (human)): 65% | kinase still bound, per cent of control (NUAK2 (human)): 100% | kinase still bound, per cent of control (PDGFRA (human)): 100% | kinase still bound, per cent of control (PRKG2 (human)): 100% | kinase still bound, per cent of control (RPS6KA1 KD2 (human)): 76% | kinase still bound, per cent of control (STK35 (human)): 96% | kinase still bound, per cent of control (TGFBR1 (human)): 100% | kinase still bound, per cent of control (TXK (human)): 100% | kinase still bound, per cent of control [6]: 95% | IC50 (MTOR (human)): 3.93 µM | IC50 (PI4KB (human)): > 10 µM | IC50 (PIK3C2A (human)): > 1 µM
